What was measured:
albumin = molecular target: T1, albumin (Bos taurus, UniProt P02769); experiment: Gelation of albumin solution in PBS by synthetic crosslinker after raising pH; parameters: species or system bovine; settings: for time to soft hydrogel: 333 mg bovine serum albumin in 0.667 ml PBS; for Gel time: 27° C.
T1 construct: 333 mg bovine serum albumin was dissolved in 0.667 ml PBS
Excerpt: As described above, a biological fluid (e.g., blood, serum, or fibrinogen rich fractions) may be used for reaction with crosslinkers or the monomers to form a crosslinked gel material. The material may be made in preparation for a medical procedure, e.g., immediately before or during the same, and used with a crosslinker or the monomer. […] The crosslinking reaction is accelerated by raising the pH of the solution. This can be achieved by contacting such composition with suitable alkaline buffer. Nonlimiting examples of suitable alkaline buffers include HEPES, sodium hydroxide, potassium hydroxide, calcium hydroxide, bicarbonate/NaOH pH 10, sodium borate pH 10, 1.5 M glycine/NaOH pH 10, 0.5-0.75M sodium carbonate/bicarbonate pH 10, 1M hydroxyethylepiperazine propane sulfonic acid (EPPS) pH 8.5, Trishydroxymethyl aminoethane sulphonic acid pH 8 and triethanol amine pH 7. The amount of alkaline buffer that is utilized should be enough to induce crosslinking. In some cases, the crosslinker is mixed with the alkaline buffer to raise the pH and then mixed with biological fluid to induce crosslinking or gelation. This method is least preferred due to hydrolysis of n-hydroxysuccimide esters at higher pH. The amine-succinimide ester reaction parameters such as number of reactive functional groups present on the biological fluid components, concentration of each ingredient, pH, temperature and pressures are adjusted such that gelation occurs within 60 minutes, more preferably with in 60 seconds and most preferably with 1 to 10 seconds.
pH was raised using 3M NaOH solution, at ambient temperature (27° C.) and mixed equal volumes. […] PEG 600 is polyethylene glycol with a molecular weight of 600.
[…] of […] was dissolved in 1 ml PBS. […] 20 microliter […] solution in PBS and 20 microliter albumin solution were mixed on a glass plate to form a uniform solution.
[…] of BTANHS was dispersed in 0.9 ml PBS. […] 20 microliter BTANHS dispersion in PBS and 20 microliter of albumin solution were mixed on a glass plate to form a uniform dispersion.
[…] of BTANHS was dispersed in 0.8 ml PBS containing 2% PLURONIC F127 (from BASF corporation USA) as a surfactant. Sonication or high speed stirring helps to form the emulsion. […] 20 microliter BTANHS emulsion in PBS and 20 microliter of albumin solution were mixed in a 1 ml plastic centrifuge tube to form a uniform solution.
Polyethylene glycol serves as an organic solvent. 200 mg bovine serum albumin was dissolved in 0.800 ml PBS.
20 microliter albumin solution and 20 microliter crosslinkers solution were mixed on a glass plate to form a uniform solution.

Solubility in water = assay type: physicochemical
[1] = Degradation of crosslinked gel made with 8 arm PEG amine; assay type: physicochemical; settings: gel with 8 arm PEG amine 20000; hydrolysis of ester bond of crosslinker
Procedure: 1 ml of each of these two solutions are mixed to produce a crosslinked gel. The crosslinked gel degrades due to hydrolysis of succinate ester bond in Hydroxylamine Succinate NHS ester.
0.12 g Hydroxylamine Glutarate NHS ester (Example 7) is dissolved in 5 ml phosphate buffered saline. 1 ml of each of two solutions are mixed to produce a crosslinked gel. The crosslinked gel degrades due to hydrolysis of glutarate ester bond in Hydroxylamine Glutarate NHS ester.

T1 sequence (P02769 25-607): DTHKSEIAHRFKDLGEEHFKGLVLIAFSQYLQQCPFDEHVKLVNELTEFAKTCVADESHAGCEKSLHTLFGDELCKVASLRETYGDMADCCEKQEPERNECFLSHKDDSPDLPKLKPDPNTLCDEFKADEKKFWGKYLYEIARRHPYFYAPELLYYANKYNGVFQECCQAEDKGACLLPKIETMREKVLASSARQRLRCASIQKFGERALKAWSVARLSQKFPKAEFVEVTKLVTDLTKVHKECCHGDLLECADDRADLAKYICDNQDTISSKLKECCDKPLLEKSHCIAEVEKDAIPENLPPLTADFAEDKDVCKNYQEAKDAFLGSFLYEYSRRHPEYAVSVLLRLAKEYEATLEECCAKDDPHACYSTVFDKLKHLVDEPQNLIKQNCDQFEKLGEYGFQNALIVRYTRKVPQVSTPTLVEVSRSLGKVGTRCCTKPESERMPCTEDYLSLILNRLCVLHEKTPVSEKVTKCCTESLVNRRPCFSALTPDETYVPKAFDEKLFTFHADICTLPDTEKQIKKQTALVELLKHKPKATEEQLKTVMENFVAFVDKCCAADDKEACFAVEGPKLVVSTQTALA

Compound	time to soft hydrogel (albumin; crosslinker dispersion in PBS, 3M sodium hydroxide)	time to soft hydrogel (albumin; crosslinker emulsion in PBS with 2% PLURONIC F127, triethanol amine)	Notes (gel formed) (albumin; 5% albumin in PBS, crosslinker 10% in PBS)	Gel time (albumin; 5% albumin in PBS, crosslinker 10% in PBS, 3M NaOH, equal volumes)	Notes (gel formed) (albumin; 5% albumin in PBS, crosslinker (10%) in PEG 600)	Gel time (albumin; 5% albumin in PBS, crosslinker (10%) in PEG 600, 3M NaOH)	Notes (gel formed) (albumin; 10% albumin in PBS, crosslinker 10% in PBS)	Gel time (albumin; 10% albumin in PBS, crosslinker 10% in PBS, 3M NaOH, equal volumes)	Notes (gel formed) (albumin; 20% albumin in PBS, crosslinker 10% in PBS)	Gel time (albumin; 20% albumin in PBS, crosslinker 10% in PBS, 3M NaOH, equal volumes)	Notes (gel formed) (albumin; 20% albumin in PBS, crosslinker (10%) in PEG 600)	Gel time (albumin; 20% albumin in PBS, crosslinker (10%) in PEG 600, 3M NaOH)	Notes (gel formed) (albumin; 30% albumin in PBS, crosslinker 10% in PBS)	Gel time (albumin; 30% albumin in PBS, crosslinker 10% in PBS, pH raised with 3M NaOH, equal volumes)	solubility in water (Solubility in water)	degradation of crosslinked gel [1]
O=C(CC(C(=O)ON1C(=O)CCC1=O)C(CC(=O)ON1C(=O)CCC1=O)C(=O)ON1C(=O)CCC1=O)ON1C(=O)CCC1=O (stereo not shown) [BTANHS]	5 min	3 min	Did not gel	>28 min	Did not gel	>25 min	Soft gel	18 min	Soft gel	3 min	Soft gel	5 min	Soft gel	1 min	Water Insoluble	
Hydroxylamine Glutarate NHS Ester																degrades

Source: patent US7597882B2, “Protein crosslinkers, crosslinking methods and applications thereof” (Incept LLC, priority 2006, dated 2009)
